# Laboratory results as given in ChEMBL document CHEMBL1145783, “Development of an orexin-2 receptor selective agonist, [Ala(11), D-Leu(15)]orexin-B” (Bioorg Med Chem Lett, 2003).
# Residues, ends and D or L forms follow the SMILES beside them. *: point of attachment. X1 = C[C@H](NC(=O)N1CCC[C@H]1C(=O)NCC(=O)N[C@@H](CO)C(=O)N[C@@H](CCCN=C(N)N)C(N)=O)C(=O)NC(=O)CN*
# Molecular target: T1, Orexin receptor type 2 (Homo sapiens, UniProt O43614)
# T1 sequence (O43614 whole entry): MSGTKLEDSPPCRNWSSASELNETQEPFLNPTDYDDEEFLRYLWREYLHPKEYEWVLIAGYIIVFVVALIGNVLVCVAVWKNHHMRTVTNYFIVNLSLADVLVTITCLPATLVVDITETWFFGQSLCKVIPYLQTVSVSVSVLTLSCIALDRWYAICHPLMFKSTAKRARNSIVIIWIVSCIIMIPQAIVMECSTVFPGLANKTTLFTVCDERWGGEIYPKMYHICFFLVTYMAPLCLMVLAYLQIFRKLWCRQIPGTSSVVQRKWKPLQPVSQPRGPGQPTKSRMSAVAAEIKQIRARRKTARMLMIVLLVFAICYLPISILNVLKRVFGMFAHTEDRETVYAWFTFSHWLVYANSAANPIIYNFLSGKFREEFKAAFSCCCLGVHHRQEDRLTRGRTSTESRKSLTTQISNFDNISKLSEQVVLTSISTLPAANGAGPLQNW
# Assay: Agonist activity against human orexin 2 receptor; EC50; nM
# Assay type: functional
row,Molecule,EC50 [pM]
1,CC[C@H](C)[C@H](NC(=O)[C@H](CC(C)C)NC(=O)[C@@H](NC(=O)[C@@H](N)CCSC)[C@@H](C)O)C(=O)NCC(=O)N[C@@H](C)C(=O)N[C@@H](C)C(=O)N[C@@H](Cc1c[nH]cn1)C(=O)N[C@@H](CC(N)=O)C(=O)NCC(=O)N[C@@H](CO)C(=O)N[C@@H](C)C(=O)N[C@@H](CCC(N)=O)C(=O)N[C@@H](CC(C)C)C(=O)N[C@@H](CC(C)C)C(=O)N[C@@H](CCCN=C(N)N)C(=O)N[C@@H](CCC(N)=O)C(=O)N[C@@H](CC(C)C)C(=O)N[C@@H](CCCN=C(N)N)C(=O)NCC(=O)N[C@@H](CCC(N)=O)C(=O)N[C@@H](CC(C)C)C(=O)NCC(=O)N1CCC[C@H]1C(=O)N1CCC[C@H]1C(=O)NCC(=O)N[C@H](CO)C(=O)N[C@@H](CCCN=C(N)N)C(N)=O,150
2,CC[C@H](C)[C@H](NC(=O)[C@H](CC(C)C)NC(=O)[C@@H](NC(=O)[C@@H](N)CCSC)[C@@H](C)O)C(=O)NCC(=O)N[C@@H](C)C(=O)N[C@@H](C)C(=O)N[C@@H](Cc1cnc[nH]1)C(=O)N[C@@H](CC(N)=O)C(=O)NCC(=O)N[C@@H](CO)C(=O)N[C@@H](C)C(=O)N[C@@H](CCC(N)=O)C(=O)N[C@@H](CC(C)C)C(=O)N[C@@H](CC(C)C)C(=O)N[C@H](CCCN=C(N)N)C(=O)N[C@@H](CCC(N)=O)C(=O)N[C@@H](CC(C)C)C(=O)N[C@@H](CCCN=C(N)N)C(=O)NCC(=O)N[C@@H](CCC(N)=O)C(=O)N[C@@H](CC(C)C)C(=O)NCC(=O)N1CCC[C@H]1C(=O)N1CCC[C@H]1C(=O)NCC(=O)N[C@@H](CO)C(=O)N[C@@H](CCCN=C(N)N)C(N)=O,410
3,CC[C@H](C)[C@H](NC(=O)[C@H](CC(C)C)NC(=O)[C@@H](NC(=O)[C@@H](N)CCSC)[C@@H](C)O)C(=O)N[C@@H](C)C(=O)N[C@@H](C)C(=O)N[C@@H](C)C(=O)N[C@@H](Cc1cnc[nH]1)C(=O)N[C@@H](CC(N)=O)C(=O)NCC(=O)N[C@@H](CO)C(=O)N[C@@H](C)C(=O)N[C@@H](CCC(N)=O)C(=O)N[C@@H](CC(C)C)C(=O)N[C@@H](CC(C)C)C(=O)N[C@@H](CCCN=C(N)N)C(=O)N[C@@H](CCC(N)=O)C(=O)N[C@@H](CC(C)C)C(=O)N[C@@H](CCCN=C(N)N)C(=O)NCC(=O)N[C@@H](CCC(N)=O)C(=O)N[C@@H](CC(C)C)C(=O)NCC(=O)N1CCC[C@H]1C(=O)N1CCC[C@H]1C(=O)NCC(=O)N[C@@H](CO)C(=O)N[C@@H](CCCN=C(N)N)C(N)=O,290000
4,CC[C@H](C)[C@H](NC(=O)[C@H](CC(C)C)NC(=O)[C@@H](NC(=O)[C@@H](N)CCSC)[C@@H](C)O)C(=O)NCC(=O)N[C@@H](C)C(=O)N[C@@H](C)C(=O)N[C@@H](Cc1c[nH]cn1)C(=O)N[C@@H](CC(N)=O)C(=O)NCC(=O)N[C@@H](CO)C(=O)N[C@@H](C)C(=O)N[C@H](CCC(N)=O)C(=O)N[C@@H](CC(C)C)C(=O)N[C@@H](CC(C)C)C(=O)N[C@@H](CCCN=C(N)N)C(=O)N[C@@H](CCC(N)=O)C(=O)N[C@@H](CC(C)C)C(=O)N[C@@H](CCCN=C(N)N)C(=O)NCC(=O)N[C@@H](CCC(N)=O)C(=O)N[C@@H](CC(C)C)C(=O)NCC(=O)N1CCC[C@H]1C(=O)N1CCC[C@H]1C(=O)NCC(=O)N[C@@H](CO)C(=O)N[C@@H](CCCN=C(N)N)C(N)=O,410
5,H-MTLIGAAHNGSAQLLAQLRGQLGPPGSR-NH2,130
6,CC[C@H](C)[C@H](NC(=O)[C@H](CC(C)C)NC(=O)[C@@H](NC(=O)[C@@H](N)CCSC)[C@@H](C)O)C(=O)NCC(=O)N[C@@H](C)C(=O)N[C@@H](C)C(=O)N[C@@H](Cc1c[nH]cn1)C(=O)N[C@@H](CC(N)=O)C(=O)NCC(=O)N[C@@H](CO)C(=O)N[C@@H](C)C(=O)N[C@@H](CCC(N)=O)C(=O)N[C@@H](CC(C)C)C(=O)N[C@@H](CC(C)C)C(=O)N[C@@H](CCCN=C(N)N)C(=O)N[C@@H](CCC(N)=O)C(=O)N[C@@H](CC(C)C)C(=O)N[C@@H](CCCN=C(N)N)C(=O)NCC(=O)N[C@@H](CCC(N)=O)C(=O)N[C@@H](CC(C)C)C(=O)NCC(=O)N1CCC[C@@H]1C(=O)N1CCC[C@H]1C(=O)NCC(=O)N[C@@H](CO)C(=O)N[C@@H](CCCN=C(N)N)C(N)=O,160
7,CC[C@H](C)[C@H](NC(=O)[C@H](CC(C)C)NC(=O)[C@@H](NC(=O)[C@@H](N)CCSC)[C@@H](C)O)C(=O)NCC(=O)N[C@@H](C)C(=O)N[C@@H](C)C(=O)N[C@@H](Cc1cnc[nH]1)C(=O)N[C@@H](CC(N)=O)C(=O)NCC(=O)N[C@@H](CO)C(=O)N[C@@H](C)C(=O)N[C@@H](CCC(N)=O)C(=O)N[C@@H](CC(C)C)C(=O)N[C@@H](CC(C)C)C(=O)N[C@@H](CCCN=C(N)N)C(=O)N[C@@H](CCC(N)=O)C(=O)N[C@@H](CC(C)C)C(=O)N[C@@H](CCCN=C(N)N)C(=O)NCC(=O)N[C@@H](CCC(N)=O)C(=O)N[C@@H](CC(C)C)C(=O)NCC(=O)N1CCC[C@H]1C(=O)N1CCC[C@H]1C(=O)N[C@H](C)C(=O)N[C@@H](CO)C(=O)N[C@@H](CCCN=C(N)N)C(N)=O,160
8,CC[C@H](C)[C@H](NC(=O)[C@H](CC(C)C)NC(=O)[C@@H](NC(=O)[C@@H](N)CCSC)[C@@H](C)O)C(=O)NCC(=O)N[C@@H](C)C(=O)N[C@@H](C)C(=O)N[C@@H](Cc1cnc[nH]1)C(=O)N[C@@H](CC(N)=O)C(=O)NCC(=O)N[C@@H](CO)C(=O)N[C@H](C)C(=O)N[C@@H](CCC(N)=O)C(=O)N[C@@H](CC(C)C)C(=O)N[C@@H](CC(C)C)C(=O)N[C@@H](CCCN=C(N)N)C(=O)N[C@@H](CCC(N)=O)C(=O)N[C@@H](CC(C)C)C(=O)N[C@@H](CCCN=C(N)N)C(=O)NCC(=O)N[C@@H](CCC(N)=O)C(=O)N[C@@H](CC(C)C)C(=O)NCC(=O)N1CCC[C@H]1C(=O)N1CCC[C@H]1C(=O)NCC(=O)N[C@@H](CO)C(=O)N[C@@H](CCCN=C(N)N)C(N)=O,260

# Results, then the molecule that gave them:
row,EC50 [pM],Molecule
1,84,CC[C@H](C)[C@H](NC(=O)[C@H](CC(C)C)NC(=O)[C@@H](NC(=O)[C@@H](N)CCSC)[C@@H](C)O)C(=O)NCC(=O)N[C@@H](C)C(=O)N[C@@H](C)C(=O)N[C@@H](Cc1c[nH]cn1)C(=O)N[C@@H](CC(N)=O)C(=O)NCC(=O)N[C@@H](CO)C(=O)N[C@@H](C)C(=O)N[C@@H](CCC(N)=O)C(=O)N[C@@H](CC(C)C)C(=O)N[C@@H](CC(C)C)C(=O)N[C@@H](CCCN=C(N)N)C(=O)N[C@@H](CCC(N)=O)C(=O)N[C@@H](CC(C)C)C(=O)N[C@@H](CCCN=C(N)N)C(=O)NCC(=O)N[C@@H](CCC(N)=O)C(=O)N[C@H](CC(C)C)C(=O)NCC(=O)N1CCC[C@H]1C(=O)N1CCC[C@H]1C(=O)NCC(=O)N[C@@H](CO)C(=O)N[C@@H](CCCN=C(N)N)C(N)=O
2,290,CC[C@H](C)[C@H](NC(=O)[C@H](CC(C)C)NC(=O)[C@@H](NC(=O)[C@@H](N)CCSC)[C@@H](C)O)C(=O)NCC(=O)N[C@@H](C)C(=O)N[C@@H](C)C(=O)N[C@@H](Cc1c[nH]cn1)C(=O)N[C@@H](CC(N)=O)C(=O)NCC(=O)N[C@@H](CO)C(=O)N[C@@H](C)C(=O)N[C@@H](CCC(N)=O)C(=O)N[C@@H](CC(C)C)C(=O)N[C@@H](CC(C)C)C(=O)N[C@@H](CCCN=C(N)N)C(=O)N[C@@H](CCC(N)=O)C(=O)N[C@@H](CC(C)C)C(=O)N[C@@H](CCCN=C(N)N)C(=O)NCC(=O)N[C@@H](CCC(N)=O)C(=O)N[C@@H](CC(C)C)C(=O)NCC(=O)NC(=O)[C@H](C)NC(=O)N1CCC[C@H]1C(=O)NCC(=O)N[C@@H](CO)C(=O)N[C@@H](CCCN=C(N)N)C(N)=O (H-MTLIGAAHNGSAQLLRQLRGQL-X1)
3,720,H-MTLIGAAANGSAQLLRQLRGQLGPPGSR-NH2
4,150,H-MTLIGAAHNGSAQLLRQWRGQLGPPGSR-NH2
5,> 390000,CSCC[C@H](N)C(=O)N[C@H](C(=O)N[C@@H](CC(C)C)C(=O)N[C@H](C)C(=O)NCC(=O)N[C@@H](C)C(=O)N[C@@H](C)C(=O)N[C@@H](Cc1c[nH]cn1)C(=O)N[C@@H](CC(N)=O)C(=O)NCC(=O)N[C@@H](CO)C(=O)N[C@@H](C)C(=O)N[C@@H](CCC(N)=O)C(=O)N[C@@H](CC(C)C)C(=O)N[C@@H](CC(C)C)C(=O)N[C@@H](CCCN=C(N)N)C(=O)N[C@@H](CCC(N)=O)C(=O)N[C@@H](CC(C)C)C(=O)N[C@@H](CCCN=C(N)N)C(=O)NCC(=O)N[C@@H](CCC(N)=O)C(=O)N[C@@H](CC(C)C)C(=O)NCC(=O)N1CCC[C@H]1C(=O)N1CCC[C@H]1C(=O)NCC(=O)N[C@@H](CO)C(=O)N[C@@H](CCCN=C(N)N)C(N)=O)[C@@H](C)O
6,2600,CC[C@H](C)[C@H](NC(=O)[C@H](CC(C)C)NC(=O)[C@@H](NC(=O)[C@@H](N)CCSC)[C@@H](C)O)C(=O)NCC(=O)N[C@@H](C)C(=O)N[C@H](C)C(=O)N[C@@H](Cc1cnc[nH]1)C(=O)N[C@@H](CC(N)=O)C(=O)NCC(=O)N[C@@H](CO)C(=O)N[C@@H](C)C(=O)N[C@@H](CCC(N)=O)C(=O)N[C@@H](CC(C)C)C(=O)N[C@@H](CC(C)C)C(=O)N[C@@H](CCCN=C(N)N)C(=O)N[C@@H](CCC(N)=O)C(=O)N[C@@H](CC(C)C)C(=O)N[C@@H](CCCN=C(N)N)C(=O)NCC(=O)N[C@@H](CCC(N)=O)C(=O)N[C@@H](CC(C)C)C(=O)NCC(=O)N1CCC[C@H]1C(=O)N1CCC[C@H]1C(=O)NCC(=O)N[C@@H](CO)C(=O)N[C@@H](CCCN=C(N)N)C(N)=O
7,140000,H-MTAIGAAHNGSAQLLRQLRGQLGPPGSR-NH2
8,66,CC[C@H](C)[C@H](NC(=O)[C@H](CC(C)C)NC(=O)[C@@H](NC(=O)[C@@H](N)CCSC)[C@@H](C)O)C(=O)NCC(=O)N[C@@H](C)C(=O)N[C@@H](C)C(=O)N[C@@H](Cc1cnc[nH]1)C(=O)N[C@@H](CC(N)=O)C(=O)NCC(=O)N[C@@H](CO)C(=O)N[C@@H](C)C(=O)N[C@@H](CCC(N)=O)C(=O)N[C@@H](CC(C)C)C(=O)N[C@@H](CC(C)C)C(=O)N[C@@H](CCCN=C(N)N)C(=O)N[C@@H](CCC(N)=O)C(=O)N[C@@H](C)C(=O)N[C@@H](CCCN=C(N)N)C(=O)NCC(=O)N[C@@H](CCC(N)=O)C(=O)N[C@@H](CC(C)C)C(=O)NCC(=O)N1CCC[C@H]1C(=O)N1CCC[C@H]1C(=O)NCC(=O)N[C@@H](CO)C(=O)N[C@@H](CCCN=C(N)N)C(N)=O
9,91,H-MTLIGAAHNGSGQLLRQLRGQLGPPGSR-NH2
